# Results: patent US4321196A, “Bis-esters of methanediol with acetonides of ampicillin or amoxicillin and penicillanic acid 1,1-dioxide” (Pfizer Inc., priority 1981, dated 1982)
# Experiment: Serum half-life comparison of Compound I with Compound II in fasted rats, and general statements on absorption and half-life
# Type: in vivo
# Conditions: 20 mg/kg oral, versus Compound II (Y=H)
# Experimental: Since the object of the present invention is to provide a single well-absorbed source of ampicillin/amoxicillin and penicillanic acid 1,1-dioxide in serum, the compounds of the present invention are also evaluated by determination of the serum levels of these derived compounds in experimental animals, such as laboratory rats. The serum level results in fasted rats following the oral administration of 20 mg./kg. of 6'-(2,2-dimethyl-4-phenyl-5-imidazolidinon-1-yl)-penicillanoyloxymethyl penicillanate 1,1-dioxide (I, Y=H) are shown in Table I. In this test, 6'-(2-amino-2-phenylacetamido)penicillanoyloxymethyl penicillanate 1,1-dioxide (II, Y=H) at the same oral dosage has been used as control. The blood level of ampicillin was determined by standard plate bioassay methods, using Sarcina lutea 07A001 on Seed agar. For determination of penicillanic acid 1,1-dioxide, Pasturella 59B010 on MH agar was employed. It will be noted there is an approximately 50% improvement in the half-life of Compound I (Y=H) over Compound II (Y=H).
smiles,measurement,value
"CC1(C)S[C@@H]2[C@H](N3C(=O)[C@@H](c4ccccc4)NC3(C)C)C(=O)N2[C@H]1C(=O)OCOC(=O)[C@@H]1N2C(=O)C[C@H]2S(=O)(=O)C1(C)C [Compound I (Y = H), 6'-(2,2-Dimethyl-4-phenyl-5-imidazolidinon-1-yl)-penicillanoyloxymethyl Penicillanate 1,1-Dioxide]",Improvement in the half-life over Compound II (Y=H),approximately 50%
